Test results from the supplement of paper PMC10290057.
Structures can show the parent of a compound that is named as a salt.

Tests used:
[1] = system: HCT116; experiment: AC50 cell viability (CellTiter-Glo); higher = less potent; settings: 48 h
[2] = system: HCT116; experiment: efficacy (fitted maximal change in viability relative to DMSO control); higher = less cytotoxic (negative = loss of viability); settings: 48 h
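Wherever AC50 cell viability (CellTiter-Glo) is given: HCT116 colorectal carcinoma cells screened at five concentrations per compound, luminescent viability scaled between DMSO wells and empty wells on each plate, curves fitted per compound.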
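Wherever efficacy (fitted maximal change in viability relative to DMSO control) is given: Luminescence-based viability readout, five doses per compound, normalized against on-plate DMSO and empty-well controls, followed by dose-response curve fitting for every drug.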

Row | SMILES | AC50 cell viability [1] | efficacy [2]
1 | CN[C@H]1CN(C[C@@H]1OC)C2=NC3=C(C=C2)C(=O)C(=C\N3C4=NC=CS4)/C(O)=O [Vosaroxin] | 1.91 µM | -59.8%
2 | C=CC(=O)Nc1cccc(Sc2nc(Nc3ccc(N4CCN(C)CC4)cc3)ncc2Cl)c1 [WZ-8040] | 7.42 µM | -108%
3 | C=C(C)[C@H]1Cc2c(ccc3c2O[C@@H]2COc4cc(OC)c(OC)cc4[C@@H]2C3=O)O1 [Rotenone] | 0.525 µM | -64.9%
4 | COc1ccc([C@@H](O)[C@@H](C)Oc2ccc([C@H]3O[C@H](c4ccc(O[C@H](C)[C@H](O)c5ccc(OC)c(OC)c5)c(OC)c4)[C@H](C)[C@H]3C)cc2OC)cc1OC [Manassantin A] | 0.372 µM | -81%
5 | NCCOc1cc(C(=O)Nc2cc(OCCN)c3ccccc3n2)nc(C(=O)Nc2cc(OCCN)c3ccccc3n2)c1 [Pyridostatin] | 18.6 µM | -78.9%
6 | COC1(c2sc3c(N4CCOCC4)nc(-c4cnc(N)nc4)nc3c2C)COC1 [GNE-317] | 0.59 µM | -58.4%
7 | c1ccc2c(-c3cnn4cc(-c5ccc(N6CCNCC6)cc5)cnc34)ccnc2c1 | 2.35 µM | -104%
8 | COc1cc(C)c(Sc2cnc(NC(=O)c3ccc(CNC(C)C(C)(C)C)cc3)s2)cc1C(=O)N1CCN(C(C)=O)CC1 (centres undefined) | 11.8 µM | -110%
9 | O=C1S/C(=C\c2ccc(OCc3cccc(B(O)O)c3)cc2)C(=O)N1Cc1ccc(F)cc1 [HA-130] | 18.6 µM | -41.3%
10 | NC/1=N/C(=O)N(/C=C1)[C@@H]2O[C@H](CO)[C@@H](O)C2(F)F [Gemcitabine] | 0.0263 µM | -71.9%
11 | COC(C)(C)CCn1nc(Nc2c(C)cccc2C)c2cnc(Nc3ccc(OCCN4CCCC4)c(F)c3)nc21 [PRP003-032] | 14.8 µM | -122%
12 | O=C(c1ccc(Nc2nc(C3CC3)cn3c(-c4cn[nH]c4)cnc23)c(F)c1)N1CCOCC1 [P21d hydrochloride] | 14.8 µM | -86.2%
13 | CCN(CC)CCCCNc1nc2cc(Cl)c(Cl)cc2nc1-c1ccc(-c2cccs2)s1 | 23.5 µM | -97.7%
14 | COc1cc2nccc(Oc3ccc(NC(=O)C4(C(=O)Nc5ccc(F)cc5)CC4)cc3)c2cc1OC [Cabozantinib] | 7.42 µM | -65.4%
15 | Cc1ccc(-c2ccc3c(ccc4sc5c(c43)NC[C@@H](C)NC5=O)n2)cn1 | 20.9 µM | -96.2%
16 | COC(=O)[C@]12CCC(C)(C)C[C@H]1[C@H]3C(=O)\C=C\4[C@@](C)(CC[C@H]5C(C)(C)C(=O)\C(=C/[C@]45C)C#N)[C@]3(C)CC2 [Bardoxolone methyl] | 7.42 µM | -91.9%
17 | CN(C)CCOc1ccc(-c2nc(-c3ccncc3)c(-c3ccc4c(c3)CC/C4=N\O)[nH]2)cc1 | 11.8 µM | -134%
18 | C[C@@]12OC(=O)[C@@]1(NC(=O)[C@@H]2CCCl)[C@@H](O)[C@H]\3CCC\C=C3 [Marizomib] | 0.118 µM | -92.6%
19 | CC[C@H](CC#N)OC(=O)N[C@@H](C)c1cccc(NC(=O)Nc2ccc(-c3cnco3)c(OC)c2)c1 [AVN944] | 0.332 µM | -72.8%

Row | SMILES | AC50 cell viability [1] | efficacy [2]
20 | Cn1c(=O)n(-c2ccc(C(C)(C)C#N)cc2)c2c3cc(-c4cnc5ccccc5c4)ccc3ncc21 [BEZ-235] | 0.135 µM | -60.5%
21 | Cc1c(CN2CCN([S+](C)(=O)[O-])CC2)sc2c(N3CCOCC3)nc(-c3cnc(N)nc3)nc12 [GNE-477] | 0.59 µM | -57.8%
22 | Cn1ncc(Cl)c1-c1cc(C(=O)N[C@H](CN)Cc2ccc(F)c(F)c2)sc1Cl | 16.6 µM | -116%
23 | COc1ccccc1C(=O)Nc1cc2c(cc1N1CCNC[C@H]1C)n(C)c(=O)n2C [GSK-6853] | 16.6 µM | -63.8%
24 | C[S+](=O)([O-])CCNCc1ccc(-c2ccc3ncnc(Nc4ccc(OCc5cccc(F)c5)c(Cl)c4)c3c2)o1 [Lapatinib] | 16.6 µM | -99.2%
25 | CN(C)C[C@@H]1CC[N]2C=C(C3=C2C=CC=C3)C/4=C(/C(=O)NC4=O)C5=C[N](CCO1)C6=C5C=CC=C6 [Ruboxistaurin mesylate] | 8.33 µM | -102%
26 | N#Cc1cc2cc(CN3CCC(Nc4ncnc5sc(CC(F)(F)F)cc45)CC3)c(O)cc2n1Cc1cn[nH]c1 [MI-538] | 13.2 µM | -111%
27 | COc1ccc(C[C@@H](C)[C@@H](C)Cc2ccc(OC)c(OC)c2)cc1OC [Terameprocol] | 1.05 µM | -51.5%
28 | Cc1cc(Nc2ncc3c(n2)N(C)C(=O)N(c2cc(NC(=O)c4cccc(C(F)(F)F)c4)ccc2C)C3)n(C)n1 [Pluripotin] | 0.235 µM | -74%
29 | CC(C)n1ncnc1-c1cn2c(n1)-c1ccc(O[C@@H](C)C(N)=O)cc1OCC2 [GDC-0326] | 6.61 µM | -72.2%
30 | CCNC(=O)C#Cc1ccc2c(c1)NC(=O)/C2=C(\Nc1ccc(CN(C)C)cc1)c1ccccc1 | 0.257 µM | -104%
31 | CC1=CC=CC=C1CN2C(=O)C/3=C(/CCN(CC4=CC=CC=C4)C3)N\5CC\N=C25 [TIC-10] | 2.95 µM | -62.1%
32 | CNC(=O)[C@H]1O[C@@H](n2cnc3c(NCc4cccc(I)c4)nc(Cl)nc32)[C@H](O)[C@@H]1O [Namodenoson] | 23.5 µM | -94.8%
33 | CONC(=O)Nc1ccc(-c2sc3c(c2CN(C)C)c(=O)n(-c2ccc(OC)nn2)c(=O)n3Cc2c(F)cccc2F)cc1 [Relugolix] | 23.5 µM | -67.3%
34 | CC(C)C[C@H](NC(=O)CNC(=O)c1cc(Cl)ccc1Cl)B1OC(=O)CC(CC(=O)O)(C(=O)O)O1 (some centres undefined) [Ixazomib citrate] | 0.148 µM | -93.4%
35 | C=CC(=O)N1CC/C(=C\c2ccc(F)c([N+](=O)[O-])c2)C(=O)/C(=C/c2ccc(F)c([N+](=O)[O-])c2)C1 [VLX-1570] | 0.295 µM | -81.4%
36 | Cc1cnc(Nc2ccc(F)cc2Cl)nc1-c1c[nH]c(C(=O)N[C@H](CO)c2cccc(Cl)c2)c1 | 4.17 µM | -115%
37 | Oc1ccc(OCc2ccccc2)cc1 [Monobenzone] | 18.6 µM | -47.7%
38 | C[C@@H]1CC(=O)Nc2cccc(-c3ccc4c(c3)c(-c3cnn(C)c3)nn4C)c2N1 [CPI-637] | 11.8 µM | -82.6%

Row | SMILES | AC50 cell viability [1] | efficacy [2]
39 | C[C@H]1Oc2cc(cnc2N)-c2c(nn(C)c2C#N)CN(C)C(=O)c2ccc(F)cc21 [Lorlatinib] | 0.372 µM | -33.7%
40 | Nc1nc(OCc2cc(Br)cs2)c2[nH]cnc2n1 [Lomeguatrib] | 18.6 µM | -56%
41 | COc1cc2c(Oc3ccc4[nH]c(C)cc4c3F)ccnc2cc1OCC1(N)CC1 [Anlotinib] | 16.6 µM | -112%
42 | COC1=CC=CC(=C1/C2=N/CC3=C(N=C(NC4=CC(=C(C=C4)C(O)=O)OC)N=C3)C5=CC=C(Cl)C=C25)F [Alisertib] | 0.417 µM | -41.5%
43 | CN(C)C/C=C/C(=O)Nc1ccc(C(=O)Nc2cccc(Nc3ncc(Cl)c(-c4c[nH]c5ccccc45)n3)c2)cc1 [THZ1] | 0.0661 µM | -67.4%
44 | Cc1c(C(=O)Nc2ccc(N3C[C@@H](C)O[C@@H](C)C3)nc2)cccc1-c1ccc(OC(F)(F)F)cc1 [Sonidegib] | 20.9 µM | -74.9%
45 | CCC1=C2C=C(OC(=O)N3CCC(CC3)N4CCCCC4)C=CC2=NC\5=C1CN6C(=O)\C7=C(/C=C56)[C@@](O)(CC)C(=O)OC7 [Irinotecan] | 1.18 µM | -80%
46 | CO[C@@H]1C(N(C)C(=O)c2ccccc2)C[C@H]2O[C@]1(C)n1c3ccccc3c3c4c(c5c6ccccc6n2c5c31)C(=O)NC4=O (some centres undefined) [Stauprimide] | 1.66 µM | -50%
47 | NC(=O)Nc1sc(-c2ccc(F)cc2)cc1C(N)=O [TPCA-1] | 14.8 µM | -74.4%
48 | Cc1[nH]c2ccccc2c1CCNCc1ccc(/C=C/C(=O)NO)cc1 [Panobinostat] | 0.0468 µM | -87.7%
49 | F\C1=C\NC(=O)NC1=O [Fluorouracil] | 10.5 µM | -64.4%
50 | COC1=CC(=C2C(=O)N(COC/3=C/C(=O)N4\C=C/C=C(OCCN5CCCCC5)\C4=N3)[S+]([O-])(=O)C2=C1)C(C)C | 20.9 µM | -84.2%
51 | CO[C@@H]1[C@H](N(C)C(=O)c2ccccc2)C[C@H]2O[C@]1(C)n1c3ccccc3c3c4c(c5c6ccccc6n2c5c31)C(=O)NC4 [Midostaurin] | 1.48 µM | -62.7%
52 | CC1(C)C(=O)N(c2ccc(C#N)c(C(F)(F)F)c2)C(=S)N1Cc1ccc(-c2c[nH]nn2)cc1 [BG-15a] | 20.9 µM | -68.8%
53 | O=C1[O][Pt]2([NH]C3CCCCC3[NH]2)[O]C1=O (centres undefined) [Oxaliplatin] | 9.11 µM | -42.2%
54 | Cc1c(-c2ccc(-c3ccccc3F)cc2)nc2ccc(F)cc2c1C(=O)O [Brequinar] | 0.209 µM | -62.1%
55 | O=C(Nc1c[nH]nc1-c1nc2cc(CN3CCOCC3)ccc2[nH]1)NC1CC1 [AT-9283] | 0.417 µM | -62.5%
56 | CCOC(=O)c1c(CSc2ccccc2)n(C)c2cc(Br)c(O)c(CN(C)C)c12 [Arbidol] | 14.8 µM | -75.8%
57 | Cc1[nH]c(/C=C2\C(=O)Nc3ccc([S+](=O)([O-])Cc4c(Cl)cccc4Cl)cc32)c(C)c1C(=O)N1CCC[C@@H]1CN1CCCC1 | 7.42 µM | -92%
